Source: US20220127584A1, “Reactive persulfides mediate sulfur respiration in mitochondria via sulfide:quinone oxidoreductase” (Bio-Xcelerator, Inc., priority 2020, published 2022)

How the values were obtained:
[1] = tested on: fission yeast (Schizosaccharomyces pombe); test: Chronological life span of yeast; format: cell-based
Experimental: Three single colonies derived from each strain were analyzed, as previously described^31 with slight modification. Yeast cells were cultured in SC medium (at a starting OD600 of 0.1) at 30° C. with shaking. Measurement of cell viability began after 72 h of culture (day 0) and continued every 2-3 days by plating a fraction of the culture onto a fresh YPD plate (2% glucose, 0.5% yeast extract, 1% peptone, and 2% agar) to determine the number of colony-forming units (CFUs). […] Cell survival rates were calculated by normalizing the CFUs at each time point to the CFUs at day 0.

[2] = tested on: WT and Sqrdl^ΔN/ΔN MEFs; test: MEF mitochondrial membrane potential (JC-1 staining); format: cell-based, mouse
Experimental: To determine the membrane potential of mitochondria under several experimental conditions, JC-1 staining was performed according to the method previously reported ^37,38. Accumulation of the cell-permeable JC-1 probe (Abcam) in mitochondria depends on the membrane potential and is associated with a fluorescence emission shift from green (emission 527 nm) to red (emission 590 nm). Briefly, WT and Sqrdl^ΔN/ΔN MEFs, cultured in 8-well multichamber slides (Matsunami, Osaka, Japan) coated with collagen, were treated with mitochondrial ETC inhibitors (rotenone, atpenin A5, and antimycin A) the and ADP/ATP carrier inhibitor CATR^23 as described in the figure legends. For JC-1 staining, cultured cells were washed with HKRB buffer (20 mM HEPES, 103 mM NaCl, 4.77 mM KCl, 0.5 mM CaCl2, 1.2 mM MgCl2, 1.2 mM KH2PO4, 25 mM NaHCO3, and 15 mM glucose, pH 7.3), incubated with 20 μM JC-1 at 37° C. for 20 min, rinsed twice with HKRB buffer, and examined with a confocal laser scanning microscope (Nikon C2 plus, with NIS-Elements 5.01 software). ImageJ software was used for image processing and calculation of JC-1 fluorescence intensities.

[3] = tested on: mitochondria from WT and Sqrdl^ΔN/ΔN MEFs; test: Membrane potential of isolated mitochondria (TMRE time-lapse imaging); parameters: species or system mouse; conditions: for membrane potential of isolated mitochondria: supplementation to isolated MEF mitochondria
Experimental: MEF mitochondria were isolated by differential centrifugation. WT and Sqrdl^ΔN/ΔN MEFs were homogenized in the extraction buffer (10 mM Tris-HCl, 250 mM sucrose, and 0.5 mM EGTA, pH 7.4) with a Dounce homogenizer (Teflon glass) and were centrifuged at 2,000 g at 4° C. for 5 min to remove nuclei and cell debris. The supernatants were centrifuged at 12,000 g at 4° C. for 10 min, and mitochondrial pellets were washed three times with buffer and kept at −80° C. until use.
To determine the membrane potential in isolated mitochondria under several experimental conditions, TMRE staining was performed according to the method previously reported^40. The TMRE fluorescence intensity at a maximum emission of 574 nm depends on the mitochondrial membrane potential. Briefly, mitochondria from WT and Sqrdl^ΔN/ΔN MEFs were adsorbed on the bottom of 8-well μ-Slides (Ibidi, Martinsreid, Germany) coated with poly-D-lysine (Sigma-Aldrich, St. Luis, Mo., USA), after which they were stained with 10 nM TMRE (Biotium, Fremont, Calif., USA) and 50 nM MitoTracker Green FM (Thermo Fisher Scientific, Waltham, Mass., USA) at 25° C. for 10 min. TMRE fluorescence intensity (561 nm excitation and 605±15 nm emission), which is positive with MitoTracker Green FM fluorescence, was measured in individual mitochondria by using the region of interest (ROI) tool of the confocal laser scanning microscope (Nikon C2 plus, with NIS elements version 5.01 software). […] Specifically, of 200 ROIs, the top 30 ROIs were selected for analysis of TMRE fluorescence intensity in response to TMPD/ascorbate, and their means and s.d. values were calculated.

[4] = tested on: mitochondria isolated from livers of WT and Sqrdl^ΔN/ΔN mice; test: Oxygen consumption of liver mitochondria (Clark-type electrode); parameters: species or system mouse; conditions: 10-μM NaHS supply
Experimental: Mitochondria were isolated from 4- to 6-week-old mice by using two-step differential centrifugations, as previously described^41 with minor modifications. In brief, after gallbladder removal, fresh liver specimens weighing 1.0-1.5 g were minced and homogenized in ice-cold isolation buffer (10 mM Tris/MOPS, 1 mM EGTA/Tris, and 200 mM sucrose, pH 7.4). When liver weight was less than 1 g, livers were pooled. Homogenate were centrifuged at 600 g and 4° C. for 10 min to remove cellular debris and nuclei. Supernatants containing mitochondrial fraction were then centrifuged at 7,000 g at 4° C. for 10 min. Obtained mitochondrial pellets were washed with new isolation buffer and underwent centrifugation again (7,000 g for 10 min). […] The protein concentration was determined with the BCA Protein Assay Kit (Thermo Fisher Scientific). Absorbance at 562 nm was measured with NanoDrop 2000 (Thermo Fisher Scientific).
Mitochondrial oxygen consumption was measured by using a Clark-type electrode (Oxytherm system; Hansatech Instruments, Norfolk, UK). […] The OCR through complex I was measured as a mitochondrial basic function by sequentially adding 2.5 mM malate/5 mM glutamate, 150 μM ADP, and 100 nM carbonyl cyanide 4-(trifluoromethoxy) phenylhydrazone (FCCP). The respiratory control index (RCI) was calculated by using the ratio of state 3 to state 4. […]

[5] = tested on: fission yeast (Schizosaccharomyces pombe); format: cell-based; conditions: SQR-deficient yeast (Δhmt2) compared with WT yeast; increasing/high concentrations
[6] = tested on: isolated mitochondria from WT and Sqrdl^ΔN/ΔN MEFs; test: Quantification of sulfur metabolites in isolated mitochondria (LC-ESI-MS/MS); parameters: species or system mouse; conditions: addition to isolated mitochondria
Experimental: Yeast, mouse tissues, and MEFs were analyzed for the low-molecular-weight analytes cysteine (CysSH), cysteine hydropersulfide (CysSSH), glutathione (GSH), glutathione hydropersulfide (GSSH), bis-S (H2S), bis-SS (HSSH), cystine (CysSSCys), oxidized glutathione, or glutathione disulfide (GSSG), oxidized glutathione trisulfide (GSSSG), and thiosulfate (HS2O3^−) as previously described^9. Briefly, samples were homogenized with a Psychotron homogenizer (Microtec Co. Ltd.) or sonicator in ice-cold methanol in the presence of 5 mM β-(4-hydroxyphenyl)ethyl iodoacetamide (HPE-IAM). Homogenates were incubated at 37° C. for 20 min and then centrifuged at 15,000 rpm at 4° C. for 10 min. Supernatants were separated and diluted 10 times with 0.1% formic acid. Stable isotope-labeled internal standards dissolved in 0.1% formic acid solution were added to the samples to a final concentration of 25 nM. A sample of 10 μl was injected into the LC-ESI-MS/MS instrument (LCMS-8060). Various persulfide derivatives were identified and quantified by means of MRM, as previously described^9. Cell pellets were reconstituted in 0.1% SDS in PBS buffer, homogenized by sonication, and centrifuged again at 15,000 rpm at 4° C. for 10 min. […] Each analyte concentration was normalized to the measured protein concentration. […]

[7] = WT MEFs, increasing concentrations in the culture media, SQR-dependent

[Na+].[Na+].[S-][S-] [Na2S2, sodium disulfide]
chronological lifespan ([1]; SQR-deficient yeast): no effect
chronological lifespan ([1]; WT yeast): extended the lifespan
mitochondrial membrane potential [2, 7]: elevation of membrane potential
membrane potential of isolated mitochondria [3]: results that were quite similar to those induced by NaHS

antimycin A
effect on CATR-induced increase in membrane potential ([2]; WT MEFs): reduced

N[C@@H](CSSC[C@H](N)C(=O)O)C(=O)O [cystine]
mitochondrial membrane potential [2, 7]: elevation of membrane potential

S [NaHS, sodium hydrosulfide]
chronological lifespan ([1]; SQR-deficient yeast): no effect
chronological lifespan ([1]; WT yeast): extended the lifespan
mitochondrial membrane potential [2, 7]: elevation of membrane potential
membrane potential response to succinate, malate, and glutamate and to TMPD with ascorbate ([3]; 3 μM NaHS, isolated mitochondria): retained the membrane potential response
concentration at which the membrane potential response was halted ([3]; isolated mitochondria, data not shown): more than 30 μM
membrane potential of isolated mitochondria [3]: generated the membrane potential in an SQR-dependent manner
oxygen consumption [4]: induced a small oxygen consumption only in WT mitochondria

[Cl][Cd][Cl] [Cd, CdCl2]
susceptibility of yeast growth to the substance [5]: enhanced susceptibility to Cd toxicity

N[C@@H](CCC(=O)N[C@@H](CSSSC[C@H](NC(=O)CC[C@H](N)C(=O)O)C(=O)NCC(=O)O)C(=O)NCC(=O)O)C(=O)O [GSSSG, glutathione trisulfide]
membrane potential of isolated mitochondria [3]: increased the membrane potential
levels of glutathione hydropersulfide (GSSH) [6]: increased levels of glutathione hydropersulfide (GSSH)

C=C(C)[C@H]1Cc2c(ccc3c2O[C@@H]2COc4cc(OC)c(OC)cc4[C@@H]2C3=O)O1 [rotenone]
effect on CATR-induced increase in membrane potential ([2]; WT MEFs): not significantly affected

C=C1[C@@H]2CC[C@H]3[C@]4(C)C[C@H](O[C@@H]5O[C@H](CO)[C@@H](OS(=O)(=O)O)[C@H](OS(=O)(=O)O)[C@H]5OC(=O)CC(C)C)CC(C(=O)O)(C(=O)O)[C@H]4CC[C@]3(C2)[C@H]1O [CATR, carboxyatractyloside]
mitochondrial membrane potential ([2]; Sqrdl^ΔN/ΔN MEFs, CATR treatment): did not observe this increase
mitochondrial membrane potential ([2]; WT MEFs, CATR treatment): increased the membrane potential

COc1[nH]c(=O)c(C(=O)[C@@H](C)C[C@H](C)[C@@H](Cl)CCl)c(O)c1OC [atpenin A5]
effect on CATR-induced increase in membrane potential ([2]; WT MEFs): not significantly affected
